Reference: patent US7250442B2, “Dihydroindol-2-one derivatives as steroid hormone nuclear receptor modulators” (Eli Lilly and Company, priority 2003, dated 2007)

biological target: T1, glucocorticoid receptor (Homo sapiens, UniProt P04150); test: Glucocorticoid Receptor Binding Assay ([3H]-dexamethasone displacement, A549 cell extract); conditions: A549 human lung epithelial cell extract, 1.86 nM [3H]-dexamethasone; read-out: GR Ki
T1 construct: host or cells: A549 human lung epithelial cells (sonicated cell extract)
T1 sequence (P04150 1-777): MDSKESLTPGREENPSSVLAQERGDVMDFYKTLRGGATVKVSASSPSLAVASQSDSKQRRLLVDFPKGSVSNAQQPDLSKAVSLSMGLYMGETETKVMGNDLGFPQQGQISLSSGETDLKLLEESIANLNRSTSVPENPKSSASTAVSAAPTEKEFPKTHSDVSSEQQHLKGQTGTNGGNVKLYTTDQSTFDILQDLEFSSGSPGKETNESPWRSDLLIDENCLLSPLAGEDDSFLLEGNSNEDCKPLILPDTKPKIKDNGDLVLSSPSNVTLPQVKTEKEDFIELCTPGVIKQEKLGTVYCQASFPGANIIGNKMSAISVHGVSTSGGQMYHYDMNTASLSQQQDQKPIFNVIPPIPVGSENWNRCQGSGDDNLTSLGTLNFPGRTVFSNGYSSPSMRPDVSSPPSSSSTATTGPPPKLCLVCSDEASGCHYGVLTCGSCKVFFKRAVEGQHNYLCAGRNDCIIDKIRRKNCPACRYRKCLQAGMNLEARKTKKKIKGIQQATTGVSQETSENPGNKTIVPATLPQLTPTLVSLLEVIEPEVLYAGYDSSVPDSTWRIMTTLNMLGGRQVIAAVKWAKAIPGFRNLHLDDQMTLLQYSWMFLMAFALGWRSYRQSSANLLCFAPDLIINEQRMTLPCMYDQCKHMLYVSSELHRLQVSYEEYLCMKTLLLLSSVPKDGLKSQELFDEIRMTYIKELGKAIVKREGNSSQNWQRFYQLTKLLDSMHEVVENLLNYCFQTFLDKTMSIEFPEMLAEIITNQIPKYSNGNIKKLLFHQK
Description: Glucocorticoid Receptor Binding Assay:
A549 human lung epithelial cells (ATCC) are grown at a scale where gram quantity cell pellets are obtained. Harvested cell pellets are washed twice in cold phosphate buffered saline, centrifuged, and resuspended in cold assay binding buffer. The assay binding buffer consists of 10% glycerol, 50 mM Tris-HCl (pH7.2), 75 mM sodium chloride, 1.5 mM magnesium chloride, 1.5 mM EDTA, and 10 mM sodium molybdate. Cell suspensions were lysed via sonication, centrifuged, and the “extract” supernatant is snap frozen and stored at −80C. until needed.
GR binding assays are performed in a final volume of 140 ul containing 50-200 ug of A549 cell extract and 1.86 nM [^3H]-dexamethasone (Amersham) plus varying concentrations of test compound or vehicle. Briefly, assays are prepared at RT in 96-well Fisher 3356 plates, each well containing 100 ul of A549 cell extract, 20 ul of [^3H]-dexamethasone, and 20 ul of test compound/vehicle. Incubations are carried out at 4 degrees celsius for 16 hours. After incubation, 70 ul of 3× dextran-coated charcoal solution is added to each reaction, mixed, and incubated for 8 minutes at RT. 3×-dextran-coated charcoal solution consists of 250 ml assay binding buffer, 3.75 g Norit A charcoal (Sigma), and 1.25 g dextran T-70 (Amersham). Charcoal/unbound radioligand complexes are removed by centrifugation of the plate and 140 ul of supernatant from each well is transferred to another 96 well Optiplate (Packard Instruments). 200 ul of Microscint-20 scinillant (Packard Instruments) is added to each well and amount of receptor bound radioligand is determined using Packard Instruments TopCount instrument.
IC50 values, defined as the concentration of test compound required to decrease [^3H]-dexamethasone binding by 50%, are then determined. Ki values for each respective test compound can then be calculated by application of the Cheng-Prusoff equation as described in Cheng et al., Relationship Between The Inhibition Constant (Ki) and The Concentration of Inhibitor Which Causes 50% Inhibition (IC50) of an Enzymatic Reaction, Biochem. Pharmacol., 22: 3099-31088; (1973).

| SMILES | Ki [nM] |
| --- | --- |
| Cc1cc(C2(c3cc(C)c(O)c(C)c3)C(=O)N(Cc3ccccc3[N+](=O)[O-])c3ccccc32)cc(C)c1O [Example 65, 3,3-Bis-(4-hydroxy-3,5-dimethyl-phenyl)-1-(2-nitro-benzyl)-1,3-dihydro-indol-2-one] | ≤ 500 |
| COc1ccc(-c2nc(CN3C(=O)C(c4cc(C)c(O)c(C)c4)(c4cc(C)c(O)c(C)c4)c4cc(C)ccc43)cs2)cc1 [Example 95, 3,3-Bis-(4-hydroxy-3,5-dimethyl-phenyl)-1-[2-(4-methoxy-phenyl)-thiazol-4-ylmethyl]-5-methyl-1,3-dihydro-indol-2-one] | ≤ 1000 |
| Cc1cc(C2(c3cc(C)c(O)c(C)c3)C(=O)N(Cc3ccccc3C(F)(F)F)c3ccccc32)cc(C)c1O [Example 53, 3,3-Bis-(4-hydroxy-3,5-dimethyl-phenyl)-1-(2-trifluoromethyl-benzyl)-1,3-dihydro-indol-2-one] | ≤ 1000 |
| Cc1ccccc1N1C(=O)C(c2cc(C)c(O)c(C)c2)(c2cc(C)c(O)c(C)c2)c2ccccc21 [Example 132, 3,3-Bis-(4-hydroxy-3,5-dimethyl-phenyl)-1-o-tolyl-1,3-dihydro-indo 1-2-one] | ≤ 500 |
| Cc1cc(C2(c3cc(C)c(O)c(C)c3)C(=O)N(c3ccncc3)c3ccccc32)cc(C)c1O [Example 136, 3,3-Bis-(4-hydroxy-3,5-dimethyl-phenyl)-1-pyridin-4-yl-1,3-dihydro-indol-2-one] | ≤ 500 |
| Cc1cc(C2(c3cc(C)c(O)c(C)c3)C(=O)N(Cc3cccc([N+](=O)[O-])c3)c3ccccc32)cc(C)c1O [Example 85, 3,3-Bis-(4-hydroxy-3,5-dimethyl-phenyl)-1-(3-nitro-benzyl)-1,3-dihydro-indol-2-one] | ≤ 500 |
| Cc1cc(C2(c3cc(C)c(O)c(C)c3)C(=O)N(Cc3ccccc3OC(F)F)c3ccccc32)cc(C)c1O [Example 79, 1-(2-Difluoromethoxy-benzyl)-3,3-bis-(4-hydroxy-3,5-dimethyl-phenyl)-1,3-dihydro-indol-2-one] | ≤ 500 |
| Cc1ccccc1CN1C(=O)C(c2cc(C)c(O)c(C)c2)(c2cc(C)c(O)c(C)c2)c2cc(Br)ccc21 [Example 20, 5-Bromo-3,3-bis-(4-hydroxy-3,5-dimethyl-phenyl)-1-(2-methyl-benzyl)-1,3-dihydro-indol-2-one] | ≤ 500 |
| Cc1cc(C2(c3cc(C)c(O)c(C)c3)C(=O)N(Cc3cccc(Br)c3)c3ccccc32)cc(C)c1O [Example 64, 1-(3-Bromo-benzyl)-3,3-bis-(4-hydroxy-3,5-dimethyl-phenyl)-1,3-dihydro-indol-2-one] | ≤ 500 |
| Cc1cc(C2(c3cc(C)c(O)c(C)c3)C(=O)N(c3ccc(C(F)(F)F)cc3)c3ccccc32)cc(C)c1O [Example 131, 3,3-Bis-(4-hydroxy-3,5-dimethyl-phenyl)-1-(4-trifluoromethyl-phenyl)-1,3-dihydro-indol-2-one] | ≤ 500 |
| Cc1ccc2c(c1)C(c1cc(C)c(O)c(C)c1)(c1cc(C)c(O)c(C)c1)C(=O)N2Cc1ccccc1 [Example 17, 1-Benzyl-3,3-bis-(4-hydroxy-3,5-dimethyl-phenyl)-5-methyl-1,3-dihydro-indol-2-one] | ≤ 500 |
| Cc1cc(C2(c3cc(C)c(O)c(C)c3)C(=O)N(Cc3ccc(OCc4ccccc4)cc3)c3ccccc32)cc(C)c1O [Example 74, 1-(4-Benzyloxy-benzyl)-3,3-bis-(4-hydroxy-3,5-dimethyl-phenyl)-1,3-dihydro-indol-2-one] | ≤ 1000 |
| Cc1cc(C2(c3cc(C)c(O)c(C)c3)C(=O)N(Cc3ccc(C(F)(F)F)cc3C(F)(F)F)c3ccccc32)cc(C)c1O [Example 68, 1-(2,4-Bis-trifluoromethyl-benzyl)-3,3-bis-(4-hydroxy-3,5-dimethyl-phenyl)-1,3-dihydro-indol-2-one] | ≤ 1000 |
| Cc1cc(C2(c3cc(C)c(O)c(C)c3)C(=O)N(Cc3ccccc3Cl)c3ccc(Br)cc32)cc(C)c1O [Example 19, 5-Bromo-1-(2-chloro-benzyl)-3,3-bis-(4-hydroxy-3,5-dimethyl-phenyl)-1,3-dihydro-indol-2-one] | ≤ 1000 |
